Legend:
[1] = biological target: T1, Rat liver microsomal squalene synthase (Rattus norvegicus, UniProt Q02769); assay: In vitro inhibition of squalene synthase (rat liver microsomes, 3H-farnesyl diphosphate); assay type: biochemical; conditions: for inhibition at 10 µM: 10 μM (footnote *), read-out: % Inhibition at 10 μM (squalene synthase, values marked *); for inhibition at 1 µM: compared to controls with no test compound
T1 construct: Rat liver microsomes, the source of enzyme, were prepared; from tissue; host or cells: rat liver microsomes
T1 sequence (Q02769 1-416): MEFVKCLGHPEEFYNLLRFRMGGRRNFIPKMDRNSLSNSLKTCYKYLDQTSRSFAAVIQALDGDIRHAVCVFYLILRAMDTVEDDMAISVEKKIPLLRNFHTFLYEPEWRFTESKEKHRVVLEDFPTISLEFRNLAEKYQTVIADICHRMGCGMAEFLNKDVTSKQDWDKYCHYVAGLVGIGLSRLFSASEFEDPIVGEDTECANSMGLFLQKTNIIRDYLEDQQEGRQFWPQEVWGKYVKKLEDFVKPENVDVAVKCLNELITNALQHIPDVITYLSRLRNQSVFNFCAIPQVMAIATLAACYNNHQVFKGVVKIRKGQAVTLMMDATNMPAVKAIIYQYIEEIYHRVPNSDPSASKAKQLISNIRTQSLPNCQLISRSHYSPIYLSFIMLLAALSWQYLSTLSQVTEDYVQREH
Experimental: In vitro inhibition of squalene synthase may be measured by the following procedure.
Rat liver microsomal squalene synthase activity was measured using radioactive farnesyl diphosphate as a substrate and quantitating squalene synthesis by counting the radioactive squalene formed.
Rat liver microsomes, the source of enzyme, were prepared according to the method of Gillies, P. J., et al., Exp. Molec. Pathol. 44: 329-339 (1986), a modification of the procedure of Erickson, S. K., and Cooper, A. D., Metabolism, 29: 991-996 (1980). Approximately 30 μg of microsomal protein was incubated for 10 minutes at 37° C. with 11 μM of ^3 H-farnesyl diphosphate, 49 mCi/mmol, and test compound in the presence of squalene (2 μL), Mg^++, KF, reduced B-nicotinamide adenine dinucleotide phosphate, dithiothreitol, and K2 PO4, pH 7.35, in a total volume of 200 μL. Oxygen was excluded from the closed incubation tube by degassing with nitrogen. The reaction was terminated by the addition of ethanolic KOH and after degassing with N2, the microsomal membranes were solubilized by heating at 60° C. for 30 minutes. The squalene was extracted into hexane, and the squalene was separated from all other radioactive molecules by passage over an activated alumina column. The solution was collected in scintillation vials, evaporated to dryness, liquid scintillation fluid was added, and the radioactivity was determined in a liquid scintillation counter. […]

[2] = biological target: T2, Rat brain protein farnesyltransferase (Rattus norvegicus, UniProt Q02293+Q04631); assay: In vitro inhibition of protein farnesyltransferase (biotin-lamin substrate, scintillation proximity assay); assay type: biochemical; conditions: for inhibition at 10 µM: compared to uninhibited control; for inhibition at 1 µM: 1 μM (footnote *), read-out: % Inhibition at 1 μM (protein farnesyltransferase, values marked *)
T2 construct: The enzyme was purified according to Reiss, Y., et al., Cell, 62: 81-88 (1990), utilizing steps one through three; from tissue; host or cells: rat brain
Experimental: In vitro inhibition of protein farnesyltransferase may be measured by the following procedure. (Procedures for determination of the inhibition of farnesylation of the oncogene protein Ras are described by Goldstein, et al., J. Biol. Chem., 266: 15575-15578 (1991) and by Singh in U.S. Pat. No. 5,245,061 both of which are incorporated herein by reference.)
Rat brain protein farnesyltransferase activity was measured using the biotin-lamin substrate (which is known to undergo farnesylation in a manner analogous to Ras protein) and radioactive farnesyl diphosphate provided by Amersham Life Science in their commercial scintillation proximity assay kit for the determination of farnesyltransferase. The enzyme was purified according to Reiss, Y., et al., Cell, 62: 81-88 (1990), utilizing steps one through three. The specific activity of the enzyme was approximately 10 nmol substrate farnesylated/mg enzyme/hour. […]

inhibition at 10 µM [1]	inhibition at 10 µM [2]	inhibition at 1 µM [1]	inhibition at 1 µM [2]	Compound
		34%	26%	O=C(O)[C@H]1[C@H](C(=O)N(Cc2ccc(Oc3ccccc3)cc2)CC2CCCC2)[C@H](C(=O)O)[C@H]1C(=O)N(Cc1ccc(Oc2ccccc2)cc1)CC1CCCC1 [Example 101, (1α,2β,3β,4α)-1,3-Di[N-cyclopentylmethyl-N-(4-phenoxybenzyl)aminocarbonyl]cyclobutane-2,4-dicarboxylic acid]
		25%	32%	O=C(O)C1C(C(=O)N(CCSCc2ccccc2)Cc2ccc(Oc3ccccc3)cc2)C(C(=O)O)C1C(=O)N(CCSCc1ccccc1)Cc1ccc(Oc2ccccc2)cc1 (stereo not drawn) [Example 71, (1α,2β,3β,4α)-1,3-Di[N-(2-benzylthioethyl)-N-(4-phenoxybenzyl)aminocarbonyl]cyclobutane-2,4-dicarboxylic acid]
	51%	42%		O=C(O)[C@H]1[C@H](C(=O)N(CCCCc2ccccc2)Cc2ccc(Oc3ccccc3)cc2)[C@H](C(=O)O)[C@H]1C(=O)N(CCCCc1ccccc1)Cc1ccc(Oc2ccccc2)cc1 [Example 80, (1α,2β,3β,4α)-1,3-Di [N-(4-phenoxybenzyl)-N-(4-phenyl-1-butyl)aminocarbonyl]cyclobutane-2,4-dicarboxylic acid]
		50%	31%	CCCN(Cc1ccc(Oc2ccc3ccccc3c2)cc1)C(=O)C1C(C(=O)O)C(C(=O)N(CCC)Cc2ccc(Oc3ccc4ccccc4c3)cc2)C1C(=O)O (stereo not drawn) [Example 58, (1α,2β,3β,4α)-1,3-Di{N-propyl-N-[4-(naphth-2-yloxy)benzyl]aminocarbonyl}cyclobutane-2,4-dicarboxylic acid]
	48%	23%		COc1ccc(CCN(Cc2ccc(Oc3ccccc3)cc2)C(=O)[C@H]2[C@H](C(=O)O)[C@H](C(=O)N(CCc3ccc(OC)c(OC)c3)Cc3ccc(Oc4ccccc4)cc3)[C@H]2C(=O)O)cc1OC [Example 77, (1α,2β,3β,4α)-1,3-Di [N-(4-phenoxybenzyl)-N-(3,4-dimethoxyphenethyl)aminocarbonyl]cyclobutane-2,4-dicarboxylic acid]
	31%	55%		O=C(O)[C@H]1[C@H](C(=O)N(Cc2ccc(Oc3ccccc3)cc2)C2CCCCC2)[C@H](C(=O)O)[C@H]1C(=O)N(Cc1ccc(Oc2ccccc2)cc1)C1CCCCC1 [Example 98, (1α,2β,3β,4α)-1,3-Di[N-cyclohexyl-N-(4-phenoxybenzyl)aminocarbonyl]cyclobutane-2,4-dicarboxylic acid]
	49%	52%		COCCN(Cc1ccc(Oc2ccccc2)cc1)C(=O)C1C(C(=O)O)C(C(=O)N(CCOC)Cc2ccc(Oc3ccccc3)cc2)C1C(=O)O (stereo not drawn) [Example 68, (1α,2β,3β,4α)-1,3-Di[N-(2-methoxyethyl)-N-(4-phenoxybenzyl)aminocarbonyl]cyclobutane-2,4-dicarboxylic acid]
	66%	23%		COc1cccc(CCN(Cc2ccc(Oc3ccccc3)cc2)C(=O)[C@H]2[C@H](C(=O)O)[C@H](C(=O)N(CCc3cccc(OC)c3)Cc3ccc(Oc4ccccc4)cc3)[C@H]2C(=O)O)c1 [Example 76, (1α,2β,3β,4α)-1,3-Di[N-(4-phenoxybenzyl)-N-(3-methoxyphenethyl)aminocarbonyl]cyclobutane-2,4-dicarboxylic acid]
	83%	32%		O=C(O)[C@H]1[C@H](C(=O)N(CCc2ccccc2)Cc2ccc(Oc3ccccc3)cc2)[C@H](C(=O)O)[C@H]1C(=O)N(CCc1ccccc1)Cc1ccc(Oc2ccccc2)cc1 [Example 78, (1α,2β,3β,4α)-1,3-Di [N-(4-phenoxybenzyl)-N-phenethylaminocarbonyl]cyclobutane-2,4-dicarboxylicacid]
		37%	26%	CCCN(Cc1ccc(Oc2cccc(C)c2)cc1)C(=O)C1C(C(=O)O)C(C(=O)N(CCC)Cc2ccc(Oc3cccc(C)c3)cc2)C1C(=O)O (stereo not drawn) [Example 57, (1α,2β,3β,4α)-1,3-Di{N-propyl-N-[4-(3-methylphenoxy)benzyl]aminocarbonyl}cyclobutane-2,4-dicarboxylic acid]
	36%	41%		O=C(O)[C@H]1[C@H](C(=O)N(Cc2ccc(Oc3ccccc3)cc2)CC2CCCCC2)[C@H](C(=O)O)[C@H]1C(=O)N(Cc1ccc(Oc2ccccc2)cc1)CC1CCCCC1 [Example 91]
	77%	76%		CCSCCN(Cc1ccc(Oc2ccccc2)cc1)C(=O)C1C(C(=O)O)C(C(=O)N(CCSCC)Cc2ccc(Oc3ccccc3)cc2)C1C(=O)O (stereo not drawn) [Example 70, (1α,2β,3β,4α)-1,3-Di[N-(2-ethylthioethyl)-N-(4-phenoxybenzyl)aminocarbonyl]cyclobutane-2,4-dicarboxylic acid]

More lines, now with the values behind:

Compound	inhibition at 10 µM [1]	inhibition at 10 µM [2]	inhibition at 1 µM [1]	inhibition at 1 µM [2]
CN(Cc1cccc(Oc2ccc(F)cc2)c1)C(=O)[C@H]1[C@H](C(=O)O)[C@H](C(=O)N(C)Cc2cccc(Oc3ccc(F)cc3)c2)[C@H]1C(=O)O [Example 22, (1α,2β,3β,4α)-1,3-Di[N-methyl-N-(3-(4-fluorophenoxy)benzyl)aminocarbonyl]cyclobutane-2,4-dicarboxylic acid]	47%	78%		
O=C(O)[C@H]1[C@H](C(=O)N(Cc2ccccc2)Cc2ccc(Cl)cc2)[C@H](C(=O)O)[C@H]1C(=O)N(Cc1ccccc1)Cc1ccc(Cl)cc1 [Example 34, (1α,2β,3β,4α)-1,3-Di[N-benzyl-N-(4-chlorobenzyl)aminocarbonyl]cyclobutane-2,4-dicarboxylic acid]	29%	40%		
CCCN(Cc1ccc(Oc2ccco2)cc1)C(=O)C1C(C(=O)O)C(C(=O)N(CCC)Cc2ccc(Oc3ccco3)cc2)C1C(=O)O (stereo not shown) [Example 54]		59%	23%	
C=CCN(Cc1ccc(Oc2ccccc2)cc1)C(=O)[C@H]1[C@H](C(=O)O)[C@H](C(=O)N(CC=C)Cc2ccc(Oc3ccccc3)cc2)[C@H]1C(=O)O [Example 30, (1α,2β,3β,4α)-1,3-Di(N-allyl-N-(4-phenoxybenzyl)aminocarbonyl)cyclobutane-2,4-dicarboxylic acid]	63%	37%		
CC(C)=CCC/C(C)=C/CCN(C)C(=O)[C@H]1[C@H](C(=O)O)[C@H](C(=O)N(C)CC/C=C(\C)CCC=C(C)C)[C@H]1C(=O)O [Example 32, (1α,2β,3β,4α)-1,3-Di[N-methyl-N-(4,8-dimethyl-3,7-nonadienyl)aminocarbonyl]cyclobutane-2,4-dicarboxylic acid]	40%	54%		
CCCN(Cc1ccc(Oc2ccccc2)cc1)C(=O)[C@H]1[C@H](C(=O)O)[C@H](C(=O)N(CCC)Cc2ccc(Oc3ccccc3)cc2)[C@H]1C(=O)O [Example 18, (1α,2β,3β,4α)-1,3-Di(N-propyl-N-(4-phenoxybenzyl)aminocarbonyl)cyclobutane-2,4-dicarboxylic acid]	89%	55%		
CCCN(Cc1ccc(Cc2ccccc2)cc1)C(=O)[C@H]1[C@H](C(=O)O)[C@H](C(=O)N(CCC)Cc2ccc(Cc3ccccc3)cc2)[C@H]1C(=O)O [Example 26, (1α,2β,3β,4α)-1,3-Di(N-propyl-N-(4-(benzyl)benzyl)aminocarbonyl)cyclobutane-2,4-dicarboxylic acid]	33%	69%		
CN(Cc1ccc(Oc2ccc(F)cc2)cc1)C(=O)[C@H]1[C@H](C(=O)O)[C@H](C(=O)N(C)Cc2ccc(Oc3ccc(F)cc3)cc2)[C@H]1C(=O)O [Example 21, (1α,2β,3β,4α)-1,3-Di(N-methyl-N-(4-(4-fluorophenoxy)benzyl)aminocarbonyl)cyclobutane-2,4-dicarboxylic acid]	33%	27%		

— patent US5631401A, “Inhibitors of protein farnesyltransferase and squalene synthase” (Abbott Laboratories, priority 1995, dated 1997)
